Target: T1, mGluR^2 (Homo sapiens, UniProt Q14416)
T1 construct: expressed in transfected cells
Test: [3H] LY341495 binding displacement at mGluR2
Settings: cells expressing human mGluR subtypes, radioligand [3H] LY341495, read-out: Ki, reversal of [3H] LY341495 binding
Description: (D. D. Schoepp, et al., Neuropharmacol., 1996, 35, 1661–1672 and 1997, 36, 1–11).
(LY341495 is described in Ornstein et al., J. Med. Chem., 1998, 41, 346–357 and J. Med. Chem., 1998, 41, 358 to 378).

T1 sequence (Q14416 19-872): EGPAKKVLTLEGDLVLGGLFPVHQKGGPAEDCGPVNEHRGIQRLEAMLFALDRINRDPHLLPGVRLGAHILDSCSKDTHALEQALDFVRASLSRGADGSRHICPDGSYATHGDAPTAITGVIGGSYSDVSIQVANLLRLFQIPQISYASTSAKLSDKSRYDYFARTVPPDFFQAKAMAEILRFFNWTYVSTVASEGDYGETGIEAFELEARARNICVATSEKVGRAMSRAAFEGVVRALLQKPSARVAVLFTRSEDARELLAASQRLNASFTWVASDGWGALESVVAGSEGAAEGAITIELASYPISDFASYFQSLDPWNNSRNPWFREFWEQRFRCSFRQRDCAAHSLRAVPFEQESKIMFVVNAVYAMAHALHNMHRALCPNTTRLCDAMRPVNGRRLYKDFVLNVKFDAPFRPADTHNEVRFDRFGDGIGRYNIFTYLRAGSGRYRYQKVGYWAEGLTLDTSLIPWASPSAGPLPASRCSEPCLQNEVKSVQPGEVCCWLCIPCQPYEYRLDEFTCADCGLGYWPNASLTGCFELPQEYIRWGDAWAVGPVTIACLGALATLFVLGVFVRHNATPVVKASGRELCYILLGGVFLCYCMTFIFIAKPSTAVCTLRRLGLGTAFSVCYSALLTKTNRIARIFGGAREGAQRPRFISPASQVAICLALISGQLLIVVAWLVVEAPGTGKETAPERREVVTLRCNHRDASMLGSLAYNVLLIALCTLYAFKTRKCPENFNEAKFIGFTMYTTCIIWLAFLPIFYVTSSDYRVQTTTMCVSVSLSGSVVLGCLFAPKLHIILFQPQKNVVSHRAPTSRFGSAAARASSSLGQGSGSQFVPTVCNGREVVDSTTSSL

N[C@@H](C(=O)O)[C@@H]1[C@H](COC(=O)Nc2ccccc2)[C@H]1C(=O)O (racemic) [Example 1, (2SR,1′SR,2′RS,3′RS)-2-(3′-phenylcarbamoyloxymethyl-2′-carboxycyclopropyl)glycine] gave a Ki of 285 nM.

Source: patent US7081481B2, “Excitatory amino acid receptor modulators” (Eli Lilly and Company, priority 2000, dated 2006)
